Measurements: publication PMC7076710, “Synthesis, Identification, and Structure–Activity Relationship Analysis of GATA4 and NKX2-5 Protein–Protein Interaction Modulators” (Journal of Medicinal Chemistry, 2019)

System: rat BNP promoter activity in neonatal rat ventricular myocytes
Assay: BNP promoter luciferase reporter in neonatal cardiomyocytes with or without endothelin-1
Format: cell-based
Settings: neonatal cardiomyocytes, 24 h
Method: Five compounds (GATA4–NKX2-5 synergy inhibitors 1, 61, and 65; the synergy activator 2; and the NKX2-5 activity inhibitor 47c) were selected for studies in neonatal cardiomyocytes, which were treated with endothelin-1 (ET-1), a well-established hypertrophic agonist that activates the gene expression of both ANP and BNP (Figure 4). The myocytes were transfected with construct containing −534/+4 proximal region of rat BNP promoter with GATA4 and NKX2-5 binding sites in front of luciferase before exposure to compounds and ET-1, which was added 1 h after the compounds.
Figure 4 Effects of the compounds 1, 2, 47c, 61, and 65 on BNP gene activation in cardiomyocytes. Neonatal cardiomyocytes were transfected with rat BNP luciferase reporter for 24 h. The cells were exposed to compounds and 1 h later to endothelin-1 (ET-1) for 24 h. The results are expressed as +SD (n = 3 or 9 for DMSO groups). ***P < 0.001 vs DMSO; **P < 0.01 vs DMSO; *P < 0.05 vs DMSO (one-way ANOVA followed by Tukey’s HSD or Welch ANOVA followed by Games–Howell); ^###P < 0.001 vs DMSO, no stimulus (independent samples Student’s t test).
The plasmids expressing mouse GATA4 protein, pMT2-GATA4, and empty pMT2 were gifts from D. B. Wilson (Department of Pediatrics, St. Louis Children’s Hospital, St. Louis, MO).[44] The plasmids expressing mouse NKX2-5 protein, pMT2-NKX2-5, have been described earlier.[28] The luciferase reporter plasmid used in GATA4–NKX2-5 transcriptional synergy assay and NKX transcriptional assay, pGL3-3xHA, contains three high affinity binding sites for NKX2-5.[28] The luciferase reporter plasmid used in GATA transcriptional assay, NP-112, contains tandem GATA-sites and minimal promoter of rat brain natriuretic peptide (BNP) gene.[45] The pGL3-BNP luciferase reporter containing −534/+4 bp rat BNP proximal promoter described previously was used in hypertrophy assay.[46]
The neonatal rat ventricular myocytes were isolated from 2- to 3-day-old Wistar rats, as described earlier.[29],[32] Rat pups were acquired from the experimental animal facility of the University of Helsinki with an internal use license (KEK17-012). Animals were housed in standard conditions, and their handling and all procedures were carried out in accordance with University of Helsinki institutional guidelines, which conform to the National Research Council (U.S.) Guide for the Care and Use of Laboratory Animals.[47] The cells were seeded at 50 000 cells/well in Isoplate-96 microplates (PerkinElmer, Turku, Finland) and cultured for 18–20 h with Dulbecco’s modified Eagle medium (DMEM)/F12 culture medium containing 2.5 mM L-glutamine, supplemented with 100 IU/mL penicillin–streptomycin and 10% fetal bovine serum (all from Gibco, Thermo Scientific). Transfections were carried out for 24 h in serum free media (CSFM; DMEM/F12, 2.5 mg/mL bovine serum albumin, 1 μM insulin, 2.5 mM L-glutamine, 32 nM selenium, 2.8 mM sodium pyruvate, 5.64 μg/mL transferrin, 1 nM T3, and 100 IU/mL PS) by using 100 ng of pGL3-BNP luciferase plasmid per well in a 1:3 ratio of DNA/transfection reagent (Fugene 6, Promega). […] After 24 h, the luminescence was measured as above.
Results from cardiomyocyte experiments are expressed as mean + SD from at least three independent experiments. Data were analyzed using IBM SPSS Statistics 24 software. […] Significance between ET-1 and DMSO samples was analyzed with independent samples Student’s t test. […]

effect on BNP promoter activity in cardiomyocytes (in words) | Compound
increased BNP promoter activity | Cc1onc(-c2ccccc2)c1C(=O)N(C1=NC(C)CS1)c1ccc(Cl)cc1 (centres unmarked) [Compound 2]
increased BNP promoter activity | N-[4-(Diethylamino)phenyl]-3-methyl-5-(4-methyl-1,2,3-thiadiazol-5-yl)isoxazole-4-carboxamide [Compound 47c]
